Earlier results, collected in US20040132663A1 (University of Utah Research Foundation, priority 2000, published 2004).

Settings: in vivo

## contulakin-G
  potency in inhibiting pain relative to neurotensin: significantly more potent than neurotensin
